Experimental data taken from patent US12384744B2, “Enzyme-cleavable methadone prodrugs and methods of use thereof” (Ensysce Biosciences Inc., priority 2021, dated 2025).

System: trypsin
Test: Digestion with trypsin (trypsin digestion of methadone prodrugs and release of methadone)
Type: biochemical
Protocol: FIG. 6 depicts an example of trypsin digestion of methadone prodrugs according to certain embodiments. All pro-drugs are digested fully within 8-24 h. The pro-drug with 1-methylethyl linker is slightly slower, requiring 24-48 h.

CC=C(OC(=O)N(C)C(C)CNC(=O)[C@H](CCCNC(=N)N)NC(=O)c1ccccc1)C(CC(C)N(C)C)(c1ccccc1)c1ccccc1 (stereo partly drawn) [pro-drug with 1-methylethyl linker, 6-(dimethylamino)-4,4-diphenylhept-2-en-3-yl (1-((S)-2-benzamido-5-guanidinopentanamido)propan-2-yl)(methyl)carbamate]
time until pro-drug is digested fully by trypsin (FIG. 6): 24 to 48 h
release of methadone from the release intermediate after trypsin digestion (FIG. 6 and FIGS. 7A-7D, result in words): rapid release to methadone
